# In patent publication US10118903B2, “Aminotriazole-based KDM1A inhibitors as epigenetic modulators” (MUSC FOUNDATION FOR RESEARCH DEVELOPMENT, priority 2014, dated 2018):
# “Also recorded” adds a separate entry of the source.
# How the values were obtained:
# [1] = tested on: H3K4me2 levels in Calu 6 human anaplastic lung tumor cell line; test: H3K4 methylation in tumor cells by Western blot; type: cell-based; settings: Calu 6 cells
# Procedure: To verify that C1 and C15 have epigenetic effects in tumor cells, changes in H3K4 methylation in the Calu 6 human anaplastic lung tumor cell line were monitored, as shown in FIG. 4.
# Following treatment, cells were washed twice in sterile filtered cold 1×PBS. Cells were then lysed in 200 μL of lysis buffer (20 mM Tris, 150 mM NaCl, 1 mM EDTA, 1 mM EGTA, 1 mM β-glycerol, 2.5 mM sodium pyrophosphate, and 1% Triton X-100) Protease and phosphatase inhibitors were added to these buffers (1:100 dilutions of phosphatase inhibitor cocktail I and II and protease inhibitor cocktail; Sigma). The cells were then incubated on ice for 15 min, and insoluble material was pelleted by centrifugation at 4° C.
# Protein concentrations were determined by Pierce BCA protein assay kit (Thermo Sci, Product #23225). Cell lysates were subjected to SDS-PAGE, and Western blot analysis was performed with the appropriate antibodies. Primary antibodies against H3K4me2, H3K4me1, and LSD1 were from Cell Signaling; Histone H3 primary antibody was from Millipore. Proteins were visualized by enhanced chemiluminescence (ECL).
# [2] = target: human recombinant spermine oxidase (Homo sapiens, UniProt Q9NWM0); test: Inhibition of spermine oxidase; type: biochemical
# Procedure: The assay procedure is very similar to the assay used for LSD1, except that the reaction is conducted by human recombinant spermine oxidase. the assay for C1 and related analogues was conducted as previously described (Goodwin et al., 2011).
# mouse heart = test: Langendorff isolated heart model, ischemia/reperfusion; settings: versus vehicle
# From the text: (§1) In the Langendorff preparation, the heart is removed with preservation of a portion of the afferent and efferent blood vessels; it is then perfused in a reverse fashion via the aorta, usually with a nutrient rich, oxygenated solution (e.g. Krebs-Henseleit solution or Tyrode's solution). The backwards pressure causes the aortic valve to shut, forcing the solution into the coronary vessels, which normally supply the heart tissue with blood. This feeds nutrients and oxygen to the cardiac muscle, allowing it to continue beating for several hours after its removal from the animal. This is a useful preparation because it allows the addition of drugs (via the perfusate) and observation of their effect on the heart without the complications involved with in vivo experimentation, such as neuronal and hormonal effects from living animal (Broadley, K. J., 1970). A pressure transducer is inserted to measure a number of cardiac performance parameters including left ventricular developed pressure, left ventricular end diastolic pressure, heart rate, etc. Following the Langendorff procedure, the myocardium is cut into cross sections, and infarcted tissue is identified by the inability to take up stain; thus infarcted areas appear white, while healthy areas appear red.
# The compounds described herein may be used to protect the myocardium from injury following an ischemic event. In FIG. 6, a mouse heart was subjected to ischemia by ligation of the afferent vessel in a Langendorff preparation, as described above. Prior to the induction of ischemia, hearts were either pre-treated with vehicle, verlindamycin or C1. […] In FIG. 8, the results of an experiment to measure infarcted tissue in a myocardial cross-section are shown. Results are expressed as a percentage of the area of infarct with respect to total surface area. […] The HDAC1/CoREST/LSD1 complex was pulled down with an LSD1 antibody and a Western blot for CoREST was performed.
# murine myocardium = test: Infarct area in myocardial cross-section after induced myocardial ischemia; type: in vivo, mouse; settings: 10 mg/kg; versus vehicle
# From the text: as §1, with “Following the Langendorff procedure, the myocardium is cut into cross sections, and infarcted tissue is identified by the inability to take up stain; thus infarcted areas appear white, while healthy areas appear red.” left out
# The compounds described herein may be used to protect the myocardium from injury following an ischemic event. […] Results are expressed as a percentage of the area of infarct with respect to total surface area. […]
# [3] = tested on: HDAC1/CoREST/LSD1 complex; test: Pull-down of HDAC1/CoREST/LSD1 complex with HDAC1 antibody, Western blot for CoREST; type: cell-based; settings: primary feline cardiomyocytes, 3 h, 5 μM
# From the text: Co-immunoprecipitation (pull down) of intact protein complexes works by selecting an antibody that targets a known protein that is believed to be a member of a larger complex of proteins. By targeting this known member with an antibody it may become possible to pull the entire protein complex out of solution and thereby identify unknown members of the complex. This works when the proteins involved in the complex bind to each other tightly, making it possible to pull multiple members of the complex out of solution by latching onto one member with an antibody. This concept of pulling protein complexes out of solution is sometimes referred to as a “pull-down”. Co-immunoprecipitation is a powerful technique that is used regularly by molecular biologists to analyze protein-protein interactions. The co-repressor HDAC:CoREST:LSD1 complex was initially pulled down with an antibody for HDAC1 and a Western blot for CoREST was performed.
# LSD1:CoREST complex = test: Pull-down of HDAC1/CoREST/LSD1 complex with LSD1 antibody, Western blot for CoREST; type: cell-based; settings: primary feline cardiomyocytes, 3 h, 1 μM; LSD1 antibody pull-down
# Procedure: Co-immunoprecipitation analysis for LSD1:CoREST complex following treatment from primary rat cardiomyocytes with 5 μM and 1 μM C1 was performed as described above. Lysates pulled down with LSD1 antibody and western blotted for CoREST (n=2).
# [4] = target: recombinant human LSD1/CoREST (Homo sapiens, UniProt O60341); test: IC50 determination by dose-response curve against recombinant LSD1/CoREST; type: biochemical
# Procedure: Using a dose-response curve, the IC50 of C1 and C15 were calculated.
# (§2) In short, 10 μM of compound was combined with the fluorometic substrate 10-acetyl-3,7-dihydroxyphenoxazine, horseradish peroxidase, human recombinant LSD1, and 100 μM dimethylated lysine at residue 4 [ARTK(diMe)[…]] (Seq. ID No: 1) for 30 mins at 37° C. Plates were read using an excitation wavelength of 535 nm and an emission wavelength of 590 nm with a SpectraMax M5 Microplate reader.
# human recombinant LSD1 = target: T1, human recombinant LSD1 (Homo sapiens, UniProt O60341); test: LSD1 inhibitor screening assay (Cayman Chemical kit, fluorometric); type: biochemical; settings: 10 μM compound; Chembridge analogues table
# T1 construct: purchased Cayman Chemical Item #700120
# Procedure: LSD1 Inhibitor Screening Assay:
# as §2
# Chain of human recombinant spermine oxidase (Q9NWM0 whole entry): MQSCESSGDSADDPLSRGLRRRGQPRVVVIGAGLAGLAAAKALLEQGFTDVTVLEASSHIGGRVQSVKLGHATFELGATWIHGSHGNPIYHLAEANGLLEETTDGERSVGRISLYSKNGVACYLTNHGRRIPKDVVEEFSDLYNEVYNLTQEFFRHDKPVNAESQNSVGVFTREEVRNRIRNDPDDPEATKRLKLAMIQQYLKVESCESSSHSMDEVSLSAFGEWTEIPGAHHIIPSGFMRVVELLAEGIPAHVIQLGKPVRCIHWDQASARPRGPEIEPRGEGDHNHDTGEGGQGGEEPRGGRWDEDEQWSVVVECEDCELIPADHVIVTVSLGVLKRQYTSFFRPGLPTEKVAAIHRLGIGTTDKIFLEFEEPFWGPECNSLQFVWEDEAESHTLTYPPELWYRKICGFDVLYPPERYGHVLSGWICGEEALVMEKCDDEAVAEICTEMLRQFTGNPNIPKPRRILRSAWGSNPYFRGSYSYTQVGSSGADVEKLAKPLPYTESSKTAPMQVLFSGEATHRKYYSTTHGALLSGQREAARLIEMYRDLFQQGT
mode of inhibition of spermine oxidase [2],"IC50 ([2]; assayed between 0.1 and 1.0 μM, read-out: IC50 against spermine oxidase (SMOX))",IC50 [4],inhibition at 10 µM (human recombinant LSD1),SMILES,effect on H3K4 methylation ([1]; 24 or 48 hours),inhibition of spermine oxidase compared with verlindamycin ([2]; assayed between 0.1 and 1.0 μM),left ventricular end diastolic pressure (mouse heart; 1 hour pre-treatment with 1.0 μM),"left ventricular developed pressure (mouse heart; pre-treatment before ischemia, after reperfusion)",infarct area as a percentage of the total left ventricular area (murine myocardium),association of HDAC1 and CoREST [3],association between LSD1 and CoREST (LSD1:CoREST complex),H3K4me2 levels ([1]; 72 hours)
competitive inhibitor,0.04 µM,,,"Nc1nnc(NCc2c(Cl)cccc2Oc2ccccc2)[nH]1 [Compound C1, N^3-(2-chloro-6-phenoxybenzyl)-4H-1,2,4-triazole-3,5-diamine]",did not appear to have a significant effect,improved inhibition of spermine oxidase over verlindamycin,reduced to near-normal levels,restored to nearly normal levels,most effective in limiting the spread of infarct; also recorded: significantly more effective than treatment with vehicle,disrupted the association of HDAC1 and CoREST,disrupted the association between LSD1 and CoREST,
,,2.2 µM,74.9 ± 1.9%,"COc1ccccc1CNc1n[nH]c(NCc2ccccc2OC)n1 [Compound C15, N^3,N^5-bis(2-methoxybenzyl)-1H-1,2,4-triazole-3,5-diamine]",,improved inhibition of spermine oxidase over verlindamycin,,,,disrupted the association of HDAC1 and CoREST,,"significant, dose-dependent increase"
